The text below walks through data of ChEMBL document CHEMBL1201862, “PubChem BioAssay data set” (2004).

Molecules are shown by their SMILES.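 How tested: cells in 96-well plates exposed to compound for 48 hours at five concentrations. GI50 marks 50% less growth.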 Calls of active or inactive are those of the source. No stated cut-off is given here; in the data, active = GI50 up to about 1.1 µM and inactive = higher.

Some test systems named below: MDA-N; ACHN; A498; SK-MEL-2; SR; BT-549; LOX IMVI; NCI-H522; A549; DU-145; SF-539; SNB-19; HOP-62; SF-268; M14; MDA-MB-435; EKVX; SN12C; RXF 393; CCRF-CEM.
What all share (experiment): inhibition of tumour cell growth, NCI panel, 48 h

As to `Cc1ccc(OC2CC(n3cnc4ncnc(Cl)c43)OC2Oc2ccc(C)cc2)cc1` (stereo not drawn), the GI50 with MDA-N was 22.4 µM (inactive); in the assay on ACHN it was 2.59 µM (inactive); in the assay on A498 it was 45.6 µM (inactive); with SK-MEL-2, 13.6 µM (inactive); with SR, 2.48 µM (inactive); in the assay on BT-549 it was 25.4 µM (inactive). Moreover, the GI50 in the assay on LOX IMVI is 5.51 µM (inactive); with NCI-H522, 5.36 µM (inactive); with A549 it was 25.2 µM (inactive); in the assay on DU-145 it was 15.7 µM (inactive); with SF-539, 7.78 µM (inactive); with SNB-19, 16.1 µM (inactive). Further, the GI50 in the assay on HOP-62 was 27.3 µM (inactive); with SF-268 it was 18.7 µM (inactive); in the assay with M14, 18.1 µM (inactive); in the assay with MDA-MB-435, 39.1 µM (inactive); in the assay with EKVX, 33.3 µM (inactive); in the assay on SN12C it was 29.6 µM (inactive).

With `Cc1cccc(/C(Br)=C2/OC(=O)c3ccccc32)c1`, the GI50 with RXF 393, with MDA-N, with ACHN, in the assay on CCRF-CEM, in the assay on A498 and in the assay with SR was > 100 µM (inactive) in each case. Besides, the GI50 in the assay with BT-549, with NCI-H522, with A549, in the assay on DU-145, in the assay on SF-539 and in the assay with HOP-62 was > 100 µM (inactive) throughout. For the same molecule, the GI50 with SF-268, in the assay with M14, in the assay with MDA-MB-435, in the assay with EKVX and in the assay with SN12C was > 100 µM (inactive) throughout.

`O=C(/N=C1/NCC(CN2CCN(c3ccccc3)CC2)O1)Nc1ccccc1` (stereo not drawn): the GI50 with RXF 393, in the assay on MDA-N, with ACHN, with CCRF-CEM, with A498 and in the assay on SK-MEL-2 was > 100 µM (inactive) each time. The GI50 with SR, with BT-549, in the assay with LOX IMVI, in the assay on NCI-H522, with A549 and with DU-145 was > 100 µM (inactive) each time. Further, the GI50 in the assay on SNB-19, in the assay on HOP-62, with SF-268, in the assay on M14, in the assay on MDA-MB-435 and in the assay with EKVX was > 100 µM (inactive) in each case. The GI50 in the assay on SN12C was > 100 µM (inactive).

In the case of `N#CCN1CCCN(CC#N)CCN(CC#N)CCCN(CC#N)CC1`, the GI50 with RXF 393 was > 100 µM (inactive); with MDA-N, > 100 µM (inactive); in the assay on ACHN it was > 100 µM (inactive); with CCRF-CEM, 89.9 µM (inactive); in the assay on A498 it was > 100 µM (inactive); in the assay on SK-MEL-2 it was > 100 µM (inactive). Moreover, the GI50 in the assay with SR is > 100 µM (inactive); with BT-549, > 100 µM (inactive); with LOX IMVI, 16.7 µM (inactive); in the assay with NCI-H522, > 100 µM (inactive); in the assay with A549 it was > 100 µM (inactive); with DU-145, > 100 µM (inactive). The GI50 in the assay on SF-539, with SNB-19, in the assay on HOP-62, in the assay on SF-268, in the assay on M14 and with MDA-MB-435 was > 100 µM (inactive) throughout. Besides, the GI50 in the assay with SN12C was > 100 µM (inactive).

For the molecule `c1ccc2sc(SSSc3nc4ccccc4s3)nc2c1`, the GI50 in the assay with RXF 393 is > 100 µM (inactive); in the assay on MDA-N it was > 100 µM (inactive); with ACHN it was > 100 µM (inactive); in the assay on CCRF-CEM it was 28.4 µM (inactive); in the assay with A498, > 100 µM (inactive); in the assay on SK-MEL-2 it was > 100 µM (inactive). The GI50 with SR is 53.8 µM (inactive); in the assay with BT-549 it was > 100 µM (inactive); with LOX IMVI, 19.1 µM (inactive); with NCI-H522, 23 µM (inactive); with A549, > 100 µM (inactive); in the assay with DU-145 it was > 100 µM (inactive). Also, the GI50 with SNB-19, with HOP-62, with SF-268, in the assay on M14, in the assay on MDA-MB-435 and with EKVX was > 100 µM (inactive) throughout. The GI50 with SN12C is > 100 µM (inactive).

In the case of `O=C1OC(c2ccco2)=N/C1=C\c1cccc([N+](=O)[O-])c1`, the GI50 with MDA-N, in the assay on ACHN, with CCRF-CEM, in the assay with A498, with SK-MEL-2 and in the assay on SR was > 100 µM (inactive) in each case. Moreover, the GI50 in the assay on BT-549, in the assay with LOX IMVI, with NCI-H522, in the assay on A549, in the assay on DU-145 and with SF-539 was > 100 µM (inactive) throughout. Also, the GI50 in the assay on SNB-19, in the assay with HOP-62, with SF-268, in the assay on M14, with MDA-MB-435 and in the assay on EKVX was > 100 µM (inactive) each time. In the assay on SN12C, the GI50 was > 100 µM (inactive).

On to `O=c1c2cc(-c3ccccc3)cnc2sn1-c1ccc([N+](=O)[O-])cc1`, for which the GI50 was 29.9 µM (inactive) in the assay on RXF 393; 60.4 µM (inactive) in the assay on MDA-N; 24.9 µM (inactive) in the assay on ACHN; 19 µM (inactive) with CCRF-CEM; 23.7 µM (inactive) in the assay with A498; 35.6 µM (inactive) in the assay on SK-MEL-2. The GI50 with SR was > 100 µM (inactive); with BT-549 it was 52.8 µM (inactive); in the assay with NCI-H522, 22.1 µM (inactive); with A549 it was 31.8 µM (inactive); with DU-145 it was 61.4 µM (inactive); in the assay on SF-539, 42.7 µM (inactive). Besides, the GI50 was 25.4 µM (inactive) in the assay with SNB-19; 26.5 µM (inactive) in the assay on HOP-62; 48.2 µM (inactive) in the assay on SF-268; 50.6 µM (inactive) in the assay with M14; 42.3 µM (inactive) in the assay with MDA-MB-435; 53 µM (inactive) in the assay with EKVX. Moreover, the GI50 in the assay on SN12C was 60 µM (inactive).

With `O=C(NC(Cc1c[nH]cn1)C(=O)N1CCCC1)C1CCCC1` (stereo not drawn), the GI50 with RXF 393 is > 100 µM (inactive); with MDA-N it was > 100 µM (inactive); in the assay on ACHN, > 100 µM (inactive); in the assay with CCRF-CEM it was > 100 µM (inactive); in the assay on A498, 37.9 µM (inactive); in the assay on SR, 54.1 µM (inactive). Moreover, the GI50 with BT-549, in the assay on LOX IMVI, with NCI-H522, in the assay with A549, in the assay on DU-145 and with SNB-19 was > 100 µM (inactive) each time. For the same molecule, the GI50 with HOP-62, in the assay on M14, with MDA-MB-435, with EKVX and with SN12C was > 100 µM (inactive) in each case.

Consider `CN(CCC(=O)N1CC(CCl)c2ccc([N+](=O)[O-])cc21)CCC(=O)N1CC(CCl)c2ccc([N+](=O)[O-])cc21` (stereo not drawn), for which the GI50 in the assay with MDA-N was 15 µM (inactive); in the assay with ACHN, 0.074 µM (active); with CCRF-CEM, 15.9 µM (inactive); in the assay with A498, 19.3 µM (inactive); in the assay with SK-MEL-2, 13.2 µM (inactive); in the assay on SR, 1.77 µM (inactive). The GI50 with BT-549 was 23.6 µM (inactive); with LOX IMVI, 7.87 µM (inactive); in the assay with NCI-H522, 6.53 µM (inactive); in the assay on A549, 36.6 µM (inactive); with DU-145, 31.5 µM (inactive); in the assay on SF-539, 14.6 µM (inactive). In addition, the GI50 with SNB-19 is > 100 µM (inactive); with HOP-62, 33.7 µM (inactive); with SF-268 it was 12.1 µM (inactive); with M14, 10.1 µM (inactive); with MDA-MB-435 it was 13.9 µM (inactive); in the assay on EKVX, 12.7 µM (inactive). In addition, the GI50 in the assay on SN12C is 19 µM (inactive).

For the molecule `COc1ccccc1/N=N/c1c(O)c(S(=O)(=O)O)cc2cc(S(=O)(=O)O)ccc12`, the GI50 is > 100 µM (inactive) in the assay on RXF 393; > 100 µM (inactive) in the assay with MDA-N; > 100 µM (inactive) in the assay with ACHN; > 100 µM (inactive) with CCRF-CEM; > 100 µM (inactive) in the assay on A498; 53.5 µM (inactive) in the assay with SK-MEL-2. The GI50 in the assay on SR, in the assay on BT-549, in the assay with LOX IMVI, in the assay with NCI-H522, in the assay with A549 and in the assay on DU-145 was > 100 µM (inactive) in each case. Further, the GI50 in the assay with SNB-19, with HOP-62, in the assay with SF-268, in the assay with M14, with MDA-MB-435 and in the assay with EKVX was > 100 µM (inactive) in each case. The GI50 in the assay with SN12C is > 100 µM (inactive).

Consider `Nc1n[n+]([O-])c2cc([N+](=O)[O-])ccc2[n+]1[O-]`, for which the GI50 in the assay on MDA-N is 2.07 µM (inactive); in the assay with ACHN, 3.35 µM (inactive); in the assay with CCRF-CEM, 1.62 µM (inactive); with A498, 15.9 µM (inactive); with SK-MEL-2 it was 15 µM (inactive); with SR, 3.18 µM (inactive). In addition, the GI50 in the assay on BT-549 is 18.1 µM (inactive); in the assay with LOX IMVI, 1.38 µM (inactive); in the assay on NCI-H522 it was 2.07 µM (inactive); in the assay with A549 it was 18.9 µM (inactive); in the assay on DU-145, 16.3 µM (inactive); in the assay with SF-539, 4.74 µM (inactive). For the same molecule, the GI50 is 13.6 µM (inactive) with SNB-19; 6.81 µM (inactive) with HOP-62; 4.84 µM (inactive) with M14; 1.75 µM (inactive) with MDA-MB-435; > 10 µM (inactive) in the assay on EKVX; 5.14 µM (inactive) in the assay with SN12C.
